These results are taken from ChEMBL document CHEMBL1201862, “PubChem BioAssay data set” (2004).

Some test systems named below: SK-OV-3; Malme-3M; RXF 393; KM12; RPMI-8226; HOP-92; IGROV-1; UO-31; CAKI-1; PC-3; M14; U-251; UACC-257; HCC 2998; OVCAR-3; MCF7; HT-29; OVCAR-4; HL-60; BT-549.
Assay in all cases: NCI tumour cell line growth inhibition, 48 h

Each structure is given as a SMILES string. Values joined by “and” are separate entries in the source; they are usually repeats but may differ in a detail not shown here. Equal values may be shown once.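 How tested: cells in 96-well plates exposed to compound for 48 hours at five concentrations. At the GI50, growth is halved.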 Active and inactive are the calls of the source. No stated cut-off is given here; in the data, active = GI50 up to about 1.1 µM and inactive = higher. A value given as a limit tells only on which side of the number the result lay.

Consider `CC(=O)O[C@H]1C(=O)N(c2cc3c4ccccc4ccc3c3ccccc23)[C@@H]1c1ccccc1`, for which the GI50 was 4.74 µM (inactive) in the experiment on SK-OV-3; 5.38 µM (inactive) in the experiment on Malme-3M; 2.72 µM (inactive) with RXF 393; 2.9 µM (inactive) in the experiment with KM12; 2.23 µM (inactive) in the experiment on RPMI-8226; 17.5 µM (inactive) with HOP-92. Also, the GI50 in the experiment with IGROV-1 is 2.11 µM (inactive); in the experiment with UO-31, 11.2 µM (inactive); with CAKI-1, 4.62 µM (inactive); with PC-3, 7.82 µM (inactive); in the experiment on M14 it was 4.38 µM (inactive); with U-251, 7.33 µM (inactive). Moreover, the GI50 is 4.09 µM (inactive) in the experiment with UACC-257; 5.04 µM (inactive) in the experiment on HCC 2998; 1.71 µM (inactive) in the experiment with OVCAR-3; 3.13 µM (inactive) in the experiment with MCF7; 2.64 µM (inactive) with HT-29; 4.66 µM (inactive) in the experiment on OVCAR-4.
As for `Cc1c2nc3ccccc3sc-2cc(=O)c1C`, the GI50 with HL-60 was 14.1 µM (inactive); in the experiment on SK-OV-3, > 100 µM (inactive); in the experiment on Malme-3M it was 46.5 µM (inactive); in the experiment on RXF 393 it was 90.8 µM (inactive); in the experiment with KM12, 76.6 µM (inactive); in the experiment with RPMI-8226 it was 39.8 µM (inactive). Also, the GI50 in the experiment on HOP-92 is > 65.9 µM (inactive); in the experiment on IGROV-1, > 56.2 µM (inactive); with UO-31, 36 µM (inactive); in the experiment on CAKI-1 it was 55 µM (inactive); with M14 it was 55.3 µM (inactive); in the experiment on U-251 it was 47.5 µM (inactive). In addition, the GI50 in the experiment on UACC-257 was 10.3 µM (inactive); with HCC 2998, > 100 µM (inactive); with OVCAR-3, 35.3 µM (inactive); in the experiment with HT-29, > 77.3 µM (inactive); in the experiment with OVCAR-4, 65.3 µM (inactive).
Consider `Cc1cccc(Nc2cnc(N)nc2N)c1`, for which the GI50 was > 100 µM (inactive) in the experiment with HL-60; > 100 µM (inactive) with SK-OV-3; > 100 µM (inactive) in the experiment with Malme-3M; 98.9 µM (inactive) in the experiment on RXF 393; > 100 µM (inactive) with KM12; > 100 µM (inactive) in the experiment on RPMI-8226. Also, the GI50 in the experiment with HOP-92 is > 100 µM (inactive); in the experiment on IGROV-1 it was > 100 µM (inactive); in the experiment with UO-31, 90.2 µM (inactive); in the experiment with CAKI-1, > 100 µM (inactive); with PC-3 it was > 100 µM (inactive); in the experiment on M14, > 100 µM (inactive). Further, the GI50 in the experiment on U-251, in the experiment with UACC-257, in the experiment with HCC 2998, with OVCAR-3, with MCF7 and in the experiment with HT-29 was > 100 µM (inactive) throughout. In the experiment on OVCAR-4, the GI50 is > 100 µM (inactive).
As for `CC1=CC(=O)CC2(C)CCC(C(C)CC(=O)CC(C)C)CC12OO` (configuration not stated), the GI50 with HL-60 is 1.83 µM (inactive) and 1.87 µM (inactive); with Malme-3M, 29.8 µM (inactive) and 16.7 µM (inactive); in the experiment with KM12, 15.6 µM (inactive) and 16.9 µM (inactive); with RPMI-8226 it was 16.6 µM (inactive) and 12.5 µM (inactive); in the experiment on HOP-92, 15.9 µM (inactive) and 18 µM (inactive); with IGROV-1 it was 15 µM (inactive) and 20 µM (inactive). The GI50 in the experiment with UO-31 was 19.9 µM (inactive) and 16.2 µM (inactive); in the experiment on CAKI-1, 19.3 µM (inactive); in the experiment with PC-3, 14.3 µM (inactive) and 15.7 µM (inactive); in the experiment with M14 it was 16.5 µM (inactive) and 17.9 µM (inactive); in the experiment with U-251, 19 µM (inactive) and 17.6 µM (inactive); in the experiment with UACC-257, 17.7 µM (inactive) and 17.3 µM (inactive). In addition, the GI50 with MCF7 was 16.9 µM (inactive) and 17.2 µM (inactive); in the experiment on HT-29, 17 µM (inactive) and 20.7 µM (inactive); in the experiment with OVCAR-4, 27.7 µM (inactive) and 16 µM (inactive).
`O=C(CC(C(=O)c1ccoc1)c1ccco1)c1ccco1` (configuration not stated): the GI50 in the experiment with HL-60 was > 100 µM (inactive); in the experiment with SK-OV-3, > 100 µM (inactive); in the experiment with RXF 393 it was > 100 µM (inactive); in the experiment on KM12 it was 57 µM (inactive); in the experiment on RPMI-8226, > 100 µM (inactive); with HOP-92, > 100 µM (inactive). In addition, the GI50 is > 100 µM (inactive) with IGROV-1; 65.9 µM (inactive) in the experiment on UO-31; > 100 µM (inactive) with CAKI-1; > 100 µM (inactive) in the experiment with M14; > 100 µM (inactive) with U-251; > 100 µM (inactive) in the experiment on UACC-257. In addition, the GI50 is > 100 µM (inactive) in the experiment with HCC 2998; > 100 µM (inactive) in the experiment with OVCAR-3; > 100 µM (inactive) with MCF7; > 100 µM (inactive) in the experiment on HT-29; 43.1 µM (inactive) in the experiment on OVCAR-4.
Regarding `CSCCC(NCc1c(O)ccc2ccc(=O)oc12)C(=O)O` (configuration not stated), the GI50 with HL-60, in the experiment with SK-OV-3, in the experiment on Malme-3M, in the experiment on RXF 393, with KM12 and in the experiment on RPMI-8226 was > 100 µM (inactive) each time. In addition, the GI50 with HOP-92, with IGROV-1, in the experiment on UO-31, with CAKI-1, with PC-3 and with M14 was > 100 µM (inactive) in each case. For the same compound, the GI50 in the experiment on U-251, with UACC-257, with HCC 2998, in the experiment on OVCAR-3, with MCF7 and with HT-29 was > 100 µM (inactive) in each case. Moreover, in the experiment on OVCAR-4, the GI50 was > 100 µM (inactive).
As to `CC1(C)NC(C(=O)c2ccccc2)=[N+]([O-])C1(O)c1ccccc1` (configuration not stated), the GI50 in the experiment with HL-60, in the experiment on SK-OV-3, with Malme-3M, in the experiment with RXF 393, in the experiment on KM12 and in the experiment with RPMI-8226 was > 100 µM (inactive) throughout. Moreover, the GI50 with HOP-92 was > 100 µM (inactive); in the experiment with IGROV-1, > 100 µM (inactive); in the experiment on UO-31 it was 69.8 µM (inactive); in the experiment with CAKI-1, > 100 µM (inactive); with PC-3, > 100 µM (inactive); in the experiment on M14, > 100 µM (inactive). For the same compound, the GI50 with U-251 is > 100 µM (inactive); in the experiment on UACC-257, 54.5 µM (inactive); in the experiment with HCC 2998 it was > 100 µM (inactive); in the experiment with OVCAR-3 it was 95.3 µM (inactive); in the experiment on MCF7, > 100 µM (inactive); with HT-29, > 100 µM (inactive). Besides, the GI50 with OVCAR-4 was > 100 µM (inactive).
As for `O=[As](O)(O)c1ccc(/N=N/c2ccc([As](=O)(O)O)cc2)cc1`, the GI50 in the experiment with HL-60, in the experiment on Malme-3M, with RXF 393, in the experiment on KM12, in the experiment with HOP-92 and in the experiment with IGROV-1 was > 100 µM (inactive) in each case. Also, the GI50 in the experiment with BT-549, with UO-31, in the experiment on CAKI-1, in the experiment with PC-3, in the experiment on M14 and in the experiment on U-251 was > 100 µM (inactive) in each case. Also, the GI50 with UACC-257, in the experiment on OVCAR-3, in the experiment on HT-29 and in the experiment with OVCAR-4 was > 100 µM (inactive) each time.
In the case of `CC[C@H](C)[C@H]1NC(=O)[C@@H](NC(=O)[C@@H](CC(C)C)N(C)C(=O)C2CCCN2C(=O)[C@H](C)O)[C@@H](C)OC(=O)[C@@H]2Cc3ccccc3CN2C(=O)[C@@H]2CCCN2C(=O)[C@H](CC(C)C)NC(=O)[C@@H](C)C(=O)[C@H](C(C)C)OC(=O)C[C@@H]1O` (some centres not stated), the GI50 was 0.547 µM (active) in the experiment on SK-OV-3; 0.34 µM (active) with Malme-3M; 0.802 µM (active) in the experiment on RXF 393; 0.104 µM (active) in the experiment on KM12; 0.399 µM (active) in the experiment on RPMI-8226; 1.58 µM (inactive) in the experiment on HOP-92. The GI50 with IGROV-1 is 0.476 µM (active); in the experiment on CAKI-1 it was 4.92 µM (inactive); in the experiment with PC-3 it was 0.317 µM (active); in the experiment with M14, 1.17 µM (inactive); with U-251, 0.0586 µM (active); in the experiment on UACC-257, 0.351 µM (active). Besides, the GI50 in the experiment on HCC 2998 was 0.154 µM (active); with OVCAR-3, 0.286 µM (active); in the experiment on MCF7, 0.0596 µM (active); in the experiment on HT-29 it was 0.258 µM (active); with OVCAR-4 it was 0.641 µM (active).
`CCCCCCCCCCCCCC(=O)O[C@H]1CC[C@H](NC(=O)[C@H](OC)[C@H](O)[C@@H](O)[C@H](O)/C=C/C(C)C)C(=O)N(C)C1` [BENGAMIDE B]: the GI50 is 0.01 µM (active) with HL-60; 0.0721 µM (active) in the experiment on SK-OV-3; 0.0362 µM (active) in the experiment on Malme-3M; 0.0615 µM (active) in the experiment with RXF 393; 0.00418 µM (active) in the experiment on KM12; 0.0895 µM (active) in the experiment with RPMI-8226. Besides, the GI50 in the experiment on HOP-92 is 0.00684 µM (active); in the experiment on IGROV-1 it was 0.00235 µM (active); with UO-31, 0.0208 µM (active); in the experiment on CAKI-1, 0.0216 µM (active); in the experiment with M14, 0.0128 µM (active); in the experiment with U-251, 0.00286 µM (active). The GI50 in the experiment on UACC-257 is 0.0331 µM (active); in the experiment on HCC 2998, 0.00195 µM (active); in the experiment on OVCAR-3, 0.00643 µM (active); in the experiment on HT-29, 0.00479 µM (active); in the experiment on OVCAR-4, 0.014 µM (active).
Consider `O=C(O)/C=C/c1ccc(O)c(O)c1` [CAFFEIC ACID], for which the GI50 in the experiment on HL-60, in the experiment on SK-OV-3, in the experiment with Malme-3M, with RXF 393, with KM12 and in the experiment on RPMI-8226 was > 100 µM (inactive) each time. Besides, the GI50 in the experiment on HOP-92 is > 100 µM (inactive); in the experiment on IGROV-1, > 100 µM (inactive); in the experiment on UO-31, 77.6 µM (inactive); in the experiment with CAKI-1, > 100 µM (inactive); in the experiment on PC-3, > 100 µM (inactive); with M14 it was > 100 µM (inactive). Besides, the GI50 in the experiment on U-251, in the experiment with UACC-257, with HCC 2998, in the experiment with OVCAR-3, with HT-29 and in the experiment with OVCAR-4 was > 100 µM (inactive) each time.
